Experimental findings from ChEMBL document CHEMBL3044871, “Importance of some classes of molecular descriptors on classification of antitumor acridinones using factor analysis” (2012) are described below.

Molecules are shown by their SMILES.

The test system of one assay is P388. Description: Antitumor activity against Mus musculus (mouse) P388 cells xenografted in Mus musculus (mouse) assessed as increase in life span at 25 mg/kg relative to control. In kind it is functional.
As for `CN(C)CCNc1ccc2nnn3c4ccc(O)cc4c(=O)c1c23`, the Activity stood at 102%.

For `CN(C)CCCNc1ccc2nnn3c4ccc(O)cc4c(=O)c1c23`, the Activity turned out to be 165%.

Regarding `CN(C)CCN(C)c1ccc2nnn3c4ccc(O)cc4c(=O)c1c23`, the Activity is listed as 10%.

The subject of a further assay is P388. Description: Antitumor activity against Mus musculus (mouse) P388 cells xenografted in Mus musculus (mouse) assessed as increase in life span at 100 mg/kg relative to control. In kind it is functional.
For `Cc1ccc2c(c1)c(=O)c1c(NCCCN(C)C)ccc3nnn2c31`, the Activity is reported as 18%.

With `CN(C)CCNc1ccc2nnn3c4ccccc4c(=O)c1c23`, the Activity came out at 77%.

Another assay has as its system P388. Briefly: Antitumor activity against Mus musculus (mouse) P388 cells xenografted in Mus musculus (mouse) assessed as increase in life span relative to control. It is filed as functional. On the set-up: concentration or dose not given beside the values.
As to `CN(C)CCCNc1ccc2ncn3c4ccc(O)cc4c(=O)c1c23`, the Activity is 120%.

As for `CCNCCNc1ccc2nnn3c4ccc(O)cc4c(=O)c1c23`, the Activity was 78%.

On to `CCN(CC)CCCCCNc1ccc2ncn3c4ccc(C)cc4c(=O)c1c23`, for which the Activity is reported as 20%.

In the case of `CN(C)CCNc1ccc2nnn3c4ccc(C(C)(C)C)cc4c(=O)c1c23`, the Activity stood at 0%.

As for `CCN(CC)CCNc1ccc2ncn3c4cc(O)ccc4c(=O)c1c23`, the Activity is recorded as 27%.

Take `CCN(CC)CCNc1ccc2ncn3c4ccccc4c(=O)c1c23`: the Activity is given as 55%.

Turning to `CN(C)CCNc1ccc2ncn3c4ccc(O)cc4c(=O)c1c23`, the Activity turned out to be 110%.

Turning to `CCN(CC)CCNc1ccc2ncn3c4ccc(C(C)(C)C)cc4c(=O)c1c23`, the Activity came to 0%.

Take `CCN(CC)CCNc1ccc2ncn3c4ccc(OC)cc4c(=O)c1c23`: the Activity worked out at 96%.

Regarding `CN(C)CCCCCNc1ccc2ncn3c4ccccc4c(=O)c1c23`, the Activity is on record as 10%.

`CN(C)CCCNc1ccc2ncn3c4ccccc4c(=O)c1c23`: the Activity stood at 25%.

For `CCN(CC)CCNc1ccc2ncn3c4ccc(O)cc4c(=O)c1c23` [C-1311], the Activity was 93%.

For the molecule `CCN(CC)CCNc1ccc2nc(C)n3c4ccc(O)cc4c(=O)c1c23`, the Activity is listed as 185%.

On to `CN(C)CCCCCNc1ccc2ncn3c4ccc(O)cc4c(=O)c1c23`, for which the Activity is on record as 85%.

As for `CN(C)CCNc1ccc2ncn3c4ccccc4c(=O)c1c23`, the Activity was 90%.
